{"source": "paper PMC3635145", "about": "(Journal of medicinal chemistry, 2013)", "origin": "cited, not measured here", "molecular_target": "T1, TbrPDEB1 (Trypanosoma brucei, UniProt Q8WQX9)", "T1 sequence (Q8WQX9 1-930)": "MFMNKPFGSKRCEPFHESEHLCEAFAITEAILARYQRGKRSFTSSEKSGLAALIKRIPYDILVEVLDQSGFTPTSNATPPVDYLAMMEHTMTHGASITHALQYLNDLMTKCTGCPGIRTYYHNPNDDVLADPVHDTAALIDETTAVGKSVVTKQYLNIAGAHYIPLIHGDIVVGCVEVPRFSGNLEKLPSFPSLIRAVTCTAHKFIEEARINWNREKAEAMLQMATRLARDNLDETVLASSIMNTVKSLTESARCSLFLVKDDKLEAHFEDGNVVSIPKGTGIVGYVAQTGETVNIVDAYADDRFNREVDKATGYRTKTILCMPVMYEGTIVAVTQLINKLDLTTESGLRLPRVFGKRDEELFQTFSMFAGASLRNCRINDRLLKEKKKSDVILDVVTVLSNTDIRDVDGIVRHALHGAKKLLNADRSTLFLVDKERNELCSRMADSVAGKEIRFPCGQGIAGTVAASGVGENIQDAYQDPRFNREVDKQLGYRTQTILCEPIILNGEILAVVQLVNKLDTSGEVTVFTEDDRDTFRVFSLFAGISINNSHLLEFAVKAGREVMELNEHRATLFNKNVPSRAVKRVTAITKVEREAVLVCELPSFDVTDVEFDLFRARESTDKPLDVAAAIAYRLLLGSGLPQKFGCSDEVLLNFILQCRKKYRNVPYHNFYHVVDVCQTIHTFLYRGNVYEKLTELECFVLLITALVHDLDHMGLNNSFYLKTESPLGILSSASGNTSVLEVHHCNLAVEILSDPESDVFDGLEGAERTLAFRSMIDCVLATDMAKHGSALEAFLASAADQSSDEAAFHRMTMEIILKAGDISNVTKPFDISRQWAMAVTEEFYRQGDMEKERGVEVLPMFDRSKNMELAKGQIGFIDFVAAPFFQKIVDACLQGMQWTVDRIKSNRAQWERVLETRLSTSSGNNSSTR"}
{"smiles": "COc1ccc(C(=O)CC(C)C)cc1OCCCCO", "note": "[compound 5, 1-(3-(4-hydroxybutoxy)-4-methoxyphenyl)-3-methylbutan-1-one]", "values": [{"measurement": "TbrPDEB1 inhibition (in words)", "value": "appears to inhibit TbrPDEB1 to some extent"}]}
